Data: patent publication US20230107642A1 (Erasca, Inc., priority 2020, published 2023)

Target: T1, K-Ras G12C (Homo sapiens, UniProt P01116, G12C)
T1 construct: This protein contained 188 amino acids in total, including an N-terminal 6-Histidine tag; made in house; host or cells: E. coli BL21
Experiment: CAF assay (% CAF; method in Example 7, not in this part)
Assay type: binding
Conditions: 10 uM compound, 1 h incubation

C=CC(=O)N1CCN(c2nc(=O)n3c4c(c(-c5cc(F)c(F)cc5F)c(Cl)cc24)SC[C@@H]3CN2CCN(C3CC3)CC2)[C@@H](C)C1 [Example 520, (3S)-7-((S)-4-acryloyl-2-methylpiperazin-1-yl)-9-chloro-3-((4-cyclopropylpiperazin-1-yl)methyl)-10-(2,4,5-trifluorophenyl)-2H-[1,4]thiazino[2,3,4-ij]quinazolin-5(3H)-one]
% CAF @ 10 uM, 1h: 51.1%

C=CC(=O)N1C[C@H](C)N(c2nc(=O)n3c4c(c(-c5cc(Cl)c(F)cc5F)c(C(F)(F)F)cc24)SC[C@@H]3CN2CCN(CC(F)F)CC2)C[C@H]1C [Example 521, (3S)-7-((2S,5R)-4-acryloyl-2,5-dimethylpiperazin-1-yl)-10-(5-chloro-2,4-difluorophenyl)-3-((4-(2,2-difluoroethyl)piperazin-1-yl)methyl)-9-(trifluoromethyl)-2H-[1,4]thiazino[2,3,4-ij]quinazolin-5(3H)-one]
% CAF @ 10 uM, 1h: 40.6%

C=CC(=O)N1CCN(c2nc(=O)n3c4c(c(-c5cc(F)c(F)cc5F)c(C(F)(F)F)cc24)SC[C@@H]3COCOC)[C@@H](C)C1 [Example 522, (3S)-7-((S)-4-acryloyl-2-methylpiperazin-1-yl)-3-((methoxymethoxy)methyl)-9-(trifluoromethyl)-10-(2,4,5-trifluorophenyl)-2H-[1,4]thiazino[2,3,4-ij]quinazolin-5(3H)-one]
% CAF @ 10 uM, 1h: 72.4%

C=CC(=O)N1C2CN(c3nc(=O)n4c5c(c(-c6ccc(F)cc6F)c(C(F)(F)F)cc35)SC[C@@H]4COC)CC1CC(F)(F)C2 [Example 523, (3S)-7-(9-acryloyl-7,7-difluoro-3,9-diazabicyclo[3.3.1]nonan-3-yl)-10-(2,4-difluorophenyl)-3-(methoxymethyl)-9-(trifluoromethyl)-2H-[1,4]thiazino[2,3,4-ij]quinazolin-5(3H)-one]
% CAF @ 10 uM, 1h: 68.9%

C=CC(=O)N1[C@H](C)CN(c2nc(=O)n3c4c(c(-c5ccc(F)cc5F)c(C(F)(F)F)cc24)SC[C@H](OC)C3)C[C@@H]1C [Example 524, (3R)-8-((3S,5R)-4-acryloyl-3,5-dimethylpiperazin-1-yl)-11-(2,4-difluorophenyl)-3-methoxy-10-(trifluoromethyl)-3,4-dihydro-2H,6H-[1,4]thiazepino[2,3,4-ij]quinazolin-6-one]
% CAF @ 10 uM, 1h: 95%

C=CC(=O)N1CCN(c2nc(=O)n3c4c(c(-c5ccc(F)cc5F)c(Cl)cc24)SC[C@H](OC)C3)CC1 [Example 525, (3R)-8-(4-acryloylpiperazin-1-yl)-10-chloro-11-(2,4-difluorophenyl)-3-methoxy-3,4-dihydro-2H,6H-[1,4]thiazepino[2,3,4-ij]quinazolin-6-one]
% CAF @ 10 uM, 1h: 86%

C=CC(=O)N1[C@H](C)CN(c2nc(=O)n3c4c(c(-c5ccc(F)cc5F)c(Cl)cc24)SC[C@H](OC)C3)C[C@@H]1C [Example 526, (3R)-8-((3S,5R)-4-acryloyl-3,5-dimethylpiperazin-1-yl)-10-chloro-11-(2,4-difluorophenyl)-3-methoxy-3,4-dihydro-2H,6H-[1,4]thiazepino[2,3,4-ij]quinazolin-6-one]
% CAF @ 10 uM, 1h: 93%

C=CC(=O)N1CCN(c2nc(=O)n3c4c(c(-c5ccc(F)cc5)c(C(F)(F)F)cc24)SC[C@H](OC)C3)[C@@H](C)C1 [Example 527, (R)-8-((S)-4-acryloyl-2-methylpiperazin-1-yl)-11-(4-fluorophenyl)-3-methoxy-10-(trifluoromethyl)-3,4-dihydro-2H,6H-[1,4]thiazepino[2,3,4-ij]quinazolin-6-one]
% CAF @ 10 uM, 1h: 97%

C=CC(=O)N1CCN(c2nc(=O)n3c4c(c(-c5ccc(F)cc5)c(Cl)cc24)SC[C@H](OC)C3)[C@@H](C)C1 [Example 528, (R)-8-((S)-4-acryloyl-2-methylpiperazin-1-yl)-10-chloro-11-(4-fluorophenyl)-3-methoxy-3,4-dihydro-2H,6H-[1,4]thiazepino[2,3,4-ij]quinazolin-6-one]
% CAF @ 10 uM, 1h: 98%

C=CC(=O)N1CCN(c2nc(=O)n3c4c(c(-c5cc(Cl)c(F)cc5F)c(Cl)cc24)SC[C@@H](OC)C3)[C@@H](C)C1 [Example 529, (3S)-8-((S)-4-acryloyl-2-methylpiperazin-1-yl)-10-chloro-11-(5-chloro-2,4-difluorophenyl)-3-methoxy-3,4-dihydro-2H,6H-[1,4]thiazepino[2,3,4-ij]quinazolin-6-one]
% CAF @ 10 uM, 1h: 95%

C=CC(=O)N1[C@H](C)CN(c2nc(=O)n3c4c(c(-c5cc(Cl)c(F)cc5F)c(Cl)cc24)SC[C@@H](OC)C3)C[C@@H]1C [Example 530, (3S)-8-((3S,5R)-4-acryloyl-3,5-dimethylpiperazin-1-yl)-10-chloro-11-(5-chloro-2,4-difluorophenyl)-3-methoxy-3,4-dihydro-2H,6H-[1,4]thiazepino[2,3,4-ij]quinazolin-6-one]
% CAF @ 10 uM, 1h: 92%

C=CC(=O)N1[C@H](C)CN(c2nc(=O)n3c4c(c(-c5ccc(F)cc5F)c(C(F)(F)F)cc24)SCC2(COC2)C3)C[C@@H]1C [Example 531, 8′-((3S,5R)-4-Acryloyl-3,5-dimethylpiperazin-1-yl)-11′-(2,4-difluorophenyl)-10′-(trifluoromethyl)-2′H,4′H,6′H-spiro[oxetane-3,3′-[1,4]thiazepino[2,3,4-ij]quinazolin]-6′-one]
% CAF @ 10 uM, 1h: 88.6%

C=CC(=O)N1CCN(c2nc(=O)n3c4c(c(-c5ccc(F)cc5)c(C(F)(F)F)cc24)SC[C@@H](OC)C3)[C@@H](C)C1 [Example 532, (S)-8-((S)-4-acryloyl-2-methylpiperazin-1-yl)-11-(4-fluorophenyl)-3-methoxy-10-(trifluoromethyl)-3,4-dihydro-2H,6H-[1,4]thiazepino[2,3,4-ij]quinazolin-6-one]
% CAF @ 10 uM, 1h: 97%

C=CC(=O)N1CCN(c2nc(=O)n3c4c(c(-c5cc(Cl)c(F)cc5F)c(C(F)(F)F)cc24)SC[C@H](OC)C3)[C@@H](C)C1 [Example 533, (3R)-8-((S)-4-acryloyl-2-methylpiperazin-1-yl)-11-(5-chloro-2,4-difluorophenyl)-3-methoxy-10-(trifluoromethyl)-3,4-dihydro-2H,6H-[1,4]thiazepino[2,3,4-ij]quinazolin-6-one]
% CAF @ 10 uM, 1h: 96%

C=CC(=O)N1CCN(c2nc(=O)n3c4c(c(-c5cc(Cl)c(F)cc5F)c(C(F)(F)F)cc24)SC[C@H](OC)C3)CC1 [Example 534, (3R)-8-(4-acryloylpiperazin-1-yl)-11-(5-chloro-2,4-difluorophenyl)-3-methoxy-10-(trifluoromethyl)-3,4-dihydro-2H,6H-[1,4]thiazepino[2,3,4-ij]quinazolin-6-one]
% CAF @ 10 uM, 1h: 97%

C=CC(=O)N1[C@H](C)CN(c2nc(=O)n3c4c(c(-c5cc(Cl)c(F)cc5F)c(C(F)(F)F)cc24)SC[C@H](OC)C3)C[C@@H]1C [Example 535, (3R)-8-((3S,5R)-4-acryloyl-3,5-dimethylpiperazin-1-yl)-11-(5-chloro-2,4-difluorophenyl)-3-methoxy-10-(trifluoromethyl)-3,4-dihydro-2H,6H-[1,4]thiazepino[2,3,4-ij]quinazolin-6-one]
% CAF @ 10 uM, 1h: 96%

C=CC(=O)N1CCN(c2nc(=O)n3c4c(c(-c5ccc(F)cc5)c(Cl)cc24)SC[C@@H](OC)C3)CC1 [Example 536, (S)-8-(4-acryloylpiperazin-1-yl)-10-chloro-11-(4-fluorophenyl)-3-methoxy-3,4-dihydro-2H,6H-[1,4]thiazepino[2,3,4-ij]quinazolin-6-one]
% CAF @ 10 uM, 1h: 97%

C=CC(=O)N1CCN(c2nc(=O)n3c4c(c(-c5ccc(F)cc5)c(Cl)cc24)SC[C@@H](OC)C3)[C@@H](C)C1 [Example 537, (S)-8-((S)-4-acryloyl-2-methylpiperazin-1-yl)-10-chloro-11-(4-fluorophenyl)-3-methoxy-3,4-dihydro-2H,6H-[1,4]thiazepino[2,3,4-ij]quinazolin-6-one]
% CAF @ 10 uM, 1h: 96%

C=CC(=O)N1CCN(c2nc(=O)n3c4c(c(-c5cc(Cl)c(F)cc5F)c(Cl)cc24)SC[C@H](OC)C3)CC1 [Example 538, (3R)-8-(4-acryloylpiperazin-1-yl)-10-chloro-11-(5-chloro-2,4-difluorophenyl)-3-methoxy-3,4-dihydro-2H,6H-[1,4]thiazepino[2,3,4-ij]quinazolin-6-one]
% CAF @ 10 uM, 1h: 97%

C=CC(=O)N1[C@H](C)CN(c2nc(=O)n3c4c(c(-c5cc(Cl)c(F)cc5F)c(C(F)(F)F)cc24)SC[C@@H](OC)C3)C[C@@H]1C [Example 539, (3S)-8-((3S,5R)-4-acryloyl-3,5-dimethylpiperazin-1-yl)-11-(5-chloro-2,4-difluorophenyl)-3-methoxy-10-(trifluoromethyl)-3,4-dihydro-2H,6H-[1,4]thiazepino[2,3,4-ij]quinazolin-6-one]
% CAF @ 10 uM, 1h: 96%

C=CC(=O)N1CCN(c2nc(=O)n3c4c(c(-c5ccc(F)cc5)c(Cl)cc24)SC[C@H](OC)C3)CC1 [Example 540, (R)-8-(4-acryloylpiperazin-1-yl)-10-chloro-11-(4-fluorophenyl)-3-methoxy-3,4-dihydro-2H,6H-[1,4]thiazepino[2,3,4-ij]quinazolin-6-one]
% CAF @ 10 uM, 1h: 98%

C=CC(=O)N1CCN(c2nc(=O)n3c4c(c(-c5cc(Cl)c(F)cc5F)c(Cl)cc24)SC[C@H](OC)C3)[C@@H](C)C1 [Example 541, (3R)-8-((S)-4-acryloyl-2-methylpiperazin-1-yl)-10-chloro-11-(5-chloro-2,4-difluorophenyl)-3-methoxy-3,4-dihydro-2H,6H-[1,4]thiazepino[2,3,4-ij]quinazolin-6-one]
% CAF @ 10 uM, 1h: 96%

C=CC(=O)N1[C@H](C)CN(c2nc(=O)n3c4c(c(-c5cc(Cl)c(F)cc5F)c(Cl)cc24)SC[C@H](OC)C3)C[C@@H]1C [Example 542, (3R)-8-((3S,5R)-4-acryloyl-3,5-dimethylpiperazin-1-yl)-10-chloro-11-(5-chloro-2,4-difluorophenyl)-3-methoxy-3,4-dihydro-2H,6H-[1,4]thiazepino[2,3,4-ij]quinazolin-6-one]
% CAF @ 10 uM, 1h: 96%
